Measurements from PubChem BioAssay (NCI).
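Results reflect a 48-hour exposure of cells in 96-well plates to compound at five concentrations. The concentration for full growth arrest is given as TGI.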

test system: NCI/ADR-RES ovarian; assay: growth of human tumour cells (NCI), 48 h

SMILES | TGI [µM]
O=C1NC(=S)NC(=O)C1C(c1ccc(O)cc1)C1C(=O)NC(=S)NC1=O | > 100
N#C/C(=C/NC(N)=S)C(N)=O | > 100
CCN(CC)CCSc1c2cc(OC)ccc2nc2ccc(OC)cc12 | > 25.9
CCOC(=O)c1ccc(NCc2ccc3oc(=O)c(-c4ccccc4)nc3c2)cc1 | > 100
CC(C)=CCC(O)[C@](C)(O)[C@H]1[C@H](O)C[C@@]2(C)[C@@H]3CCc4cc(O)c(OC5OC(CO)C(O)C(O)C5O)cc4C3(C)C(=O)C[C@]12C (stereo partly specified) | > 100

test system: ACHN renal; assay: growth of human tumour cells (NCI), 48 h

SMILES | TGI [µM]
O=c1cc(-c2ccc(Oc3ccccc3)cc2)[nH]c2cc3c(cc12)OCO3 | > 100
CC(C)=C[C@H]1CCC2(OCCO2)[C@]1(C)CO | > 100
O=C(/C=C/c1ccc2ccccc2c1)NCc1ccc(C(=O)NCCc2ccccc2)cc1 | > 100
CCOC(=O)CC(C)C1(C(=O)OCC)CCCCC1=O (stereo unspecified) | > 100
Nc1nc(-[n+]2ccc(-c3ccncc3)cc2)nc(Cl)c1Cl | > 100
CC(C)OC(=O)/C=C/C(=O)O/C=C/[N+](=O)[O-] | > 100
CC(=O)O[C@H]1C(=O)[C@@]2(C)C(C(OC(=O)c3ccccc3)[C@]3(O)CC(OC(=O)C(O)C(NC(=O)c4ccc(C(F)(F)F)cc4)c4ccccc4)C(C)=C1C3(C)C)[C@]1(OC(C)=O)CO[C@@H]1C[C@@H]2O (stereo partly specified) | > 37.5
COC(=O)CC1N=C(NC#N)N(CCc2c[nH]c3ccccc23)C1=O (stereo unspecified) | > 100
COC1=C(OC)C(=O)C(Cc2c(C)nc3sccn23)=C(C)C1=O | 30.1
Cn1c(O)c(C(=O)NC2CCCCC2)c(=O)n(C)c1=S | 13.7
CC(C)=C[C@H]1CCC2(OCCO2)[C@]1(C)COCc1ccccc1 | > 100
CC1(C)C[C@@H]2C1CCC1(C)CC2(O)CC[C@H]1O (stereo partly specified) | > 100
c1ccc(CNc2nncc3[nH]cnc23)cc1 | > 100
Nc1nc([O-])c2c(n1)[n+](C1OC(CO)C(O)C1O)cn2CCO (stereo unspecified) | > 100
CC(CC[C@@]1(C)C(=O)CCC2O[C@]21C)[C@H]1C[C@@H](c2ccoc2)OC1=O (stereo partly specified) | 48
O=Cc1ccccc1COC(=O)c1cc(C(=O)OCc2ccccc2C=O)c(C(=O)OCc2ccccc2C=O)cc1C(=O)OCc1ccccc1C=O | > 100
CCOC1=NC(O)c2cccn2-c2sccc21 (stereo unspecified) | > 100
O=C1NC(=S)NC(=O)C1C(c1ccc(O)cc1)C1C(=O)NC(=S)NC1=O | > 100
N#C/C(=C/NC(N)=S)C(N)=O | > 100
CN(C)CC1CCCC(CN(C)C)C1OC(=O)c1ccccc1 (stereo unspecified) | > 100
Cc1cc(N(CCC#N)CCC#N)ccc1/C=C(\NC(=O)/C=C/c1ccccc1)C(N)=O | > 100
CN=C(SC)N(C)c1nc(=[N+](C)C)ss1 | > 100
CCN(CC)CCSc1c2cc(OC)ccc2nc2ccc(OC)cc12 | 3.12
CCOC(=O)c1ccc(NCc2ccc3oc(=O)c(-c4ccccc4)nc3c2)cc1 | > 100
CC(C)=CCC(O)[C@](C)(O)[C@H]1[C@H](O)C[C@@]2(C)[C@@H]3CCc4cc(O)c(OC5OC(CO)C(O)C(O)C5O)cc4C3(C)C(=O)C[C@]12C (stereo partly specified) | > 100
C[Si](C)(C)OC1CC(=O)OC1n1cc(F)c(=O)[nH]c1=O (stereo unspecified) | > 100

test system: U251 CNS; assay: growth of human tumour cells (NCI), 48 h

SMILES | TGI [µM]
O=c1cc(-c2ccc(Oc3ccccc3)cc2)[nH]c2cc3c(cc12)OCO3 | > 100
O=C(/C=C/c1ccc2ccccc2c1)NCc1ccc(C(=O)NCCc2ccccc2)cc1 | > 100
CCOC(=O)CC(C)C1(C(=O)OCC)CCCCC1=O (stereo unspecified) | > 100
Nc1nc(-[n+]2ccc(-c3ccncc3)cc2)nc(Cl)c1Cl | > 100
CC(C)OC(=O)/C=C/C(=O)O/C=C/[N+](=O)[O-] | > 100
CC(=O)O[C@H]1C(=O)[C@@]2(C)C(C(OC(=O)c3ccccc3)[C@]3(O)CC(OC(=O)C(O)C(NC(=O)c4ccc(C(F)(F)F)cc4)c4ccccc4)C(C)=C1C3(C)C)[C@]1(OC(C)=O)CO[C@@H]1C[C@@H]2O (stereo partly specified) | 2.43
COC(=O)CC1N=C(NC#N)N(CCc2c[nH]c3ccccc23)C1=O (stereo unspecified) | > 100
COC1=C(OC)C(=O)C(Cc2c(C)nc3sccn23)=C(C)C1=O | 33.1
CCOc1ncn(-c2ccc(NC(=S)NC3OC(CO)C(O)C(O)C3O)cc2)n1 (stereo unspecified) | > 100
Cn1c(O)c(C(=O)NC2CCCCC2)c(=O)n(C)c1=S | 26.7
CC1(C)C[C@@H]2C1CCC1(C)CC2(O)CC[C@H]1O (stereo partly specified) | > 100
c1ccc(CNc2nncc3[nH]cnc23)cc1 | > 100
Nc1nc([O-])c2c(n1)[n+](C1OC(CO)C(O)C1O)cn2CCO (stereo unspecified) | > 100
CC(CC[C@@]1(C)C(=O)CCC2O[C@]21C)[C@H]1C[C@@H](c2ccoc2)OC1=O (stereo partly specified) | > 100
O=Cc1ccccc1COC(=O)c1cc(C(=O)OCc2ccccc2C=O)c(C(=O)OCc2ccccc2C=O)cc1C(=O)OCc1ccccc1C=O | > 100
CCOC1=NC(O)c2cccn2-c2sccc21 (stereo unspecified) | > 100
O=C1NC(=S)NC(=O)C1C(c1ccc(O)cc1)C1C(=O)NC(=S)NC1=O | > 100
N#C/C(=C/NC(N)=S)C(N)=O | > 100
CN(C)CC1CCCC(CN(C)C)C1OC(=O)c1ccccc1 (stereo unspecified) | > 100
Cc1cc(N(CCC#N)CCC#N)ccc1/C=C(\NC(=O)/C=C/c1ccccc1)C(N)=O | > 100
CN=C(SC)N(C)c1nc(=[N+](C)C)ss1 | > 100
CCN(CC)CCSc1c2cc(OC)ccc2nc2ccc(OC)cc12 | > 53.1
CCOC(=O)c1ccc(NCc2ccc3oc(=O)c(-c4ccccc4)nc3c2)cc1 | > 100
CC(C)=CCC(O)[C@](C)(O)[C@H]1[C@H](O)C[C@@]2(C)[C@@H]3CCc4cc(O)c(OC5OC(CO)C(O)C(O)C5O)cc4C3(C)C(=O)C[C@]12C (stereo partly specified) | > 100
C[Si](C)(C)OC1CC(=O)OC1n1cc(F)c(=O)[nH]c1=O (stereo unspecified) | > 100
